US9907776B2 (priority 2013, dated 2018)

How the values were obtained:
[1] = test system: PTZ (Pentylenetetrazol) induced clonic seizure; test: animal or person; type: in vivo, Rats; SD; settings: for PTZ test (ip) Protection % (Rats): rat, in vivo
[2] = test system: corneally kindled seizures; test: animal or person; type: in vivo, Sprague-Dawley rats; settings: Rattus norvegicus, po
[3] = test system: PTZ (Pentylenetetrazol) induced clonic seizure; parameters: species or system Mouse; ICR; settings: mouse, in vivo
[4] = test system: hippocampal kindled seizures; test: animal or person; type: in vivo, Sprague-Dawley rats; settings: Rattus norvegicus, ip, read-out: HK (ip) ED50
[5] = read-out: CK(po) Protection % (Rats)

Structure (SMILES): CC(OC(N)=O)C(O)c1ccccc1Cl (racemic) [Example 3, 1-(2-chlorophenyl)-1-hydroxypropyl-2-carbamate]
- ED50 ([1]; Rattus norvegicus, ip, read-out: PTZ test (ip) Rats ED50): 81.9 mg/kg
- responders at 10 mg/kg [2, 5]: 50%

Structure (SMILES): CCC(OC(N)=O)C(O)c1ccccc1Cl (racemic) [Example 8, 1-(2-chlorophenyl)-1-hydroxybutyl-2-carbamate]
- PTZ test (ip) Protection % (Mice) [3]: ^a20.4 (50%)^

Structure (SMILES): CCCCC(OC(N)=O)C(O)c1ccccc1Cl (racemic) [Example 14, 1-(2-chlorophenyl)-1-hydroxyhexyl-2-carbamate]
- PTZ test (ip) Protection % (Mice) [3]: ^a20.4 (16.7%)

Structure (SMILES): CNC(=O)OC(C)C(O)c1ccccc1Cl (racemic) [Example 29, 1-(2-chlorophenyl)-1-hydroxypropyl-2-N-methylcarbamate]
- PTZ test (ip) Protection % (Mice) [3]: ^a20.4 (33.3%)

Structure (SMILES): CCCNC(=O)OC(C)C(O)c1ccccc1Cl (racemic) [Example 30, 1-(2-chlorophenyl)-1-hydroxypropyl-2-N-propylcarbamate]
- PTZ test (ip) Protection % (Mice) [3]: ^a20.4 (33.3%)

Structure (SMILES): CC(C)NC(=O)OC(C)C(O)c1ccccc1Cl (racemic) [Example 31, 1-(2-chlorophenyl)-1-hydroxypropyl-2-N-isopropylcarbamate]
- PTZ test (ip) Protection % (Mice) [3]: ^a20.4 (83.3%)

Structure (SMILES): CC(OC(=O)NC1CC1)C(O)c1ccccc1Cl (racemic) [Example 32, 1-(2-chlorophenyl)-1-hydroxypropyl-2-N-cyclopropylcarbamate]
- PTZ test (ip) Protection % (Mice) [3]: ^a20.4 (16.7%)

Structure (SMILES): C[C@H](OC(N)=O)[C@@H](O)c1ccccc1Cl [Example 1, 1-(2-chlorophenyl)-(S)-1-hydroxypropyl-(S)-2-carbamate]
- ED50 ([2]; read-out: CK(po) ED50): 2.8 mg/kg
- ED50 [4]: 17.6 mg/kg

Structure (SMILES): C[C@@H](OC(N)=O)[C@H](O)c1ccccc1Cl [Example 2, 1-(2-chlorophenyl)-(R)-1-hydroxypropyl-(R)-2-carbamate]
- responders at 20 mg/kg [2, 5]: 16.7%

Structure (SMILES): C[C@@H](OC(N)=O)[C@@H](O)c1ccccc1Cl [Example 4, 1-(2-chlorophenyl)-(S)-1-hydroxypropyl-(R)-2-carbamate]
- responders at 30 mg/kg [2, 5]: 100%

Structure (SMILES): C[C@H](OC(N)=O)[C@H](O)c1ccccc1Cl [Example 5, 1-(2-chlorophenyl)-(R)-1-hydroxypropyl-(S)-2-carbamate]
- responders at 30 mg/kg [2, 5]: 50%

Structure (SMILES): CC[C@H](OC(N)=O)[C@@H](O)c1ccccc1Cl [Example 6, 1-(2-chlorophenyl)-(S)-1-hydroxybutyl-(S)-2-carbamate]
- PTZ test (ip) Protection % (Rats) [1]: ^b30 (50%)^
- responders at 10 mg/kg [2, 5]: 33.3%

Structure (SMILES): CC(C)[C@H](OC(N)=O)[C@@H](O)c1ccccc1Cl [Example 9, 1-(2-chlorophenyl)-(S)-1-hydroxy-3-methyl-butyl-(S)-2-carbamate]
- PTZ test (ip) Protection % (Mice) [3]: ^a20.4 (33.3%)
- responders at 30 mg/kg [2, 5]: 16.7%

Structure (SMILES): CCCC[C@H](OC(N)=O)[C@@H](O)c1ccccc1Cl [Example 12, 1-(2-chlorophenyl)-(S)-1-hydroxyhexyl-(S)-2-carbamate]
- PTZ test (ip) Protection % (Mice) [3]: ^a20.4 (33.3%)

Structure (SMILES): CCCC[C@@H](OC(N)=O)[C@H](O)c1ccccc1Cl [Example 13, 1-(2-chlorophenyl)-(R)-1-hydroxyhexyl-(R)-2-carbamate]
- PTZ test (ip) Protection % (Mice) [3]: ^a20.4 (50%)^

Structure (SMILES): CNC(=O)O[C@@H](C)[C@@H](O)c1ccccc1Cl [Example 15, 1-(2-chlorophenyl)-(S)-1-hydroxypropyl-(S)-2-N-methylcarbamate]
- PTZ test (ip) Protection % (Rats) [1]: ^b25 (33.3%)

Structure (SMILES): CCCNC(=O)O[C@@H](C)[C@@H](O)c1ccccc1Cl [Example 16, 1-(2-chlorophenyl)-(S)-1-hydroxypropyl-(S)-2-N-propylcarbamate]
- PTZ test (ip) Protection % (Rats) [1]: ^b30 (33.3%)

Structure (SMILES): C[C@H](OC(=O)NC1CC1)[C@@H](O)c1ccccc1Cl [Example 18, 1-(2-chlorophenyl)-(S)-1-hydroxypropyl-(R)-2-N-cyclopropylcarbamate]
- PTZ test (ip) Protection % (Rats) [1]: ^b30 (16.7%)

Structure (SMILES): CCCNC(=O)O[C@H](C)[C@H](O)c1ccccc1Cl [Example 23, 1-(2-chlorophenyl)-(R)-1-hydroxypropyl-(R)-2-N-propylcarbamate]
- PTZ test (ip) Protection % (Mice) [3]: ^a20.4 (50%)^

Structure (SMILES): C[C@@H](OC(=O)NC1CC1)[C@H](O)c1ccccc1Cl [Example 25, 1-(2-chlorophenyl)-(R)-1-hydroxypropyl-(R)-2-N-cyclopropylcarbamate]
- PTZ test (ip) Protection % (Mice) [3]: ^a20.4 (66.7%)

Structure (SMILES): C[C@H](OC(N)=O)[C@@H](O)c1ccc(Cl)cc1Cl [Example 36, 1-(2,4-dichlorophenyl)-(S)-1-hydroxypropyl-(S)-2-carbamate]
- PTZ test (ip) Protection % (Mice) [3]: ^a20.4 (33.3%)
- responders at 30 mg/kg [2, 5]: 50%

Structure (SMILES): C[C@H](OC(N)=O)[C@@H](O)c1c(Cl)cccc1Cl [Example 37, 1-(2,6-dichlorophenyl)-(S)-1-hydroxypropyl-(S)-2-carbamate]
- PTZ test (ip) Protection % (Rats) [1]: ^b30 (50%)^
- responders at 10 mg/kg [2, 5]: 33.3%

Structure (SMILES): C[C@H](OC(N)=O)[C@@H](O)c1cccc(Cl)c1Cl [Example 38, 1-(2,3-dichlorophenyl)-(S)-1-hydroxypropyl-(S)-2-carbamate]
- PTZ test (ip) Protection % (Mice) [3]: ^a20.4 (50%)^
- responders at 30 mg/kg [2, 5]: 50%

Structure (SMILES): CC[C@H](OC(N)=O)[C@@H](O)c1ccc(Cl)cc1Cl [Example 39, 1-(2,4-dichlorophenyl)-(S)-1-hydroxybutyl-(S)-2-carbamate]
- responders at 25 mg/kg [2, 5]: 100%

Structure (SMILES): CC[C@H](OC(N)=O)[C@@H](O)c1c(Cl)cccc1Cl [Example 40, 1-(2,6-dichlorophenyl)-(S)-1-hydroxybutyl-(S)-2-carbamate]
- PTZ test (ip) Protection % (Mice) [3]: ^a20.4 (33.3%)

Structure (SMILES): CC(C)[C@H](OC(N)=O)[C@@H](O)c1c(Cl)cccc1Cl [Example 42, 1-(2,6-dichlorophenyl)-(S)-1-hydroxy-3-methyl-butyl-(S)-2-carbamate]
- PTZ test (ip) Protection % (Mice) [3]: ^a20.4 (50%)^

Structure (SMILES): CCCC[C@H](OC(N)=O)[C@@H](O)c1ccc(Cl)cc1Cl [Example 43, 1-(2,4-dichlorophenyl)-(S)-1-hydroxyhexyl-(S)-2-carbamate]
- PTZ test (ip) Protection % (Rats) [1]: ^b25 (33.3%)

Structure (SMILES): CCCC[C@H](OC(N)=O)[C@@H](O)c1c(Cl)cccc1Cl [Example 44, 1-(2,6-dichlorophenyl)-(S)-1-hydroxyhexyl-(S)-2-carbamate]
- PTZ test (ip) Protection % (Mice) [3]: ^a20.4 (33.3%)

Structure (SMILES): C[C@@H](OC(N)=O)[C@H](O)c1ccc(Cl)cc1Cl [Example 45, 1-(2,4-dichlorophenyl)-(R)-1-hydroxypropyl-(R)-2-carbamate]
- PTZ test (ip) Protection % (Mice) [3]: ^a20.4 (16.7%)
- PTZ test (ip) Protection % (Rats) [1]: ^b50 (16.7%)

Structure (SMILES): C[C@@H](OC(N)=O)[C@H](O)c1c(Cl)cccc1Cl [Example 46, 1-(2,6-dichlorophenyl)-(R)-1-hydroxypropyl-(R)-2-carbamate]
- PTZ test (ip) Protection % (Mice) [3]: ^a20.4 (50%)^
- responders at 20 mg/kg [2, 5]: 50%

Structure (SMILES): C[C@H](OC(N)=O)[C@@H](O)c1ccccc1F [Example 63, 1-(2-fluorophenyl)-(S)-1-hydroxypropyl-(S)-2-carbamate]
- PTZ test (ip) Protection % (Mice) [3]: ^a20.4 (50%)^
- responders at 20 mg/kg [2, 5]: 100%

Structure (SMILES): C[C@H](OC(N)=O)[C@@H](O)c1ccccc1I [Example 65, 1-(2-iodophenyl)-(S)-1-hydroxypropyl-(S)-2-carbamate]
- PTZ test (ip) Protection % (Mice) [3]: ^a20.4 (100%)
- responders at 2.8 mg/kg [2, 5]: 33.3%

Structure (SMILES): CC[C@H](OC(N)=O)[C@@H](O)c1ccccc1I [Example 67, 1-(2-iodophenyl)-(S)-1-hydroxybutyl-(S)-2-carbamate]
- PTZ test (ip) Protection % (Rats) [1]: ^b30 (33.3%)
- responders at 30 mg/kg [2, 5]: 100%
